In the test the test system is CD2F1 mice, L1210 leukemia ip, survival T/C. In words: NCI In Vivo Anticancer Drug Screen. Data for tumor model L1210 Leukemia (intraperitoneal) in CD2F1 (CDF1) mice. The note with it: higher = longer survival. A digest of the protocol: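 Activity against a transplanted murine tumor was judged by comparing the compound group with a vehicle group. The outcome in the treated animals was divided by that in the controls.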

[1] abbreviates: endpoint: mean survival time, dose: 100.0 mg/kg/injection, schedule: Q01DX001 (ip), vehicle: saline with Tween-80.
Where [2] appears, read: endpoint: mean survival time, dose: 200.0 mg/kg/injection, schedule: Q01DX001 (ip), vehicle: saline with Tween-80.
Setting [3] is: endpoint: mean survival time, dose: 400.0 mg/kg/injection, schedule: Q01DX001 (ip), vehicle: saline with Tween-80.
The mark [4] stands for this setting: endpoint: mean survival time, dose: 100.0 mg/kg/injection, schedule: Q04DX003 (ip), vehicle: saline.
The mark [5] stands for this setting: endpoint: mean survival time, dose: 200.0 mg/kg/injection, schedule: Q04DX003 (ip), vehicle: saline.
The mark [6] stands for this setting: endpoint: mean survival time, dose: 100.0 mg/kg/injection, schedule: Q01DX009 (ip), vehicle: saline with Tween-80.
[7] abbreviates: endpoint: mean survival time, dose: 100.0 mg/kg/injection, schedule: Q04DX003 (ip), vehicle: saline with Tween-80.
The mark [8] stands for this setting: endpoint: mean survival time, dose: 200.0 mg/kg/injection, schedule: Q01DX009 (ip), vehicle: saline with Tween-80.
Where [9] appears, read: endpoint: mean survival time, dose: 200.0 mg/kg/injection, schedule: Q04DX003 (ip), vehicle: saline with Tween-80.
Where [10] appears, read: endpoint: mean survival time, dose: 400.0 mg/kg/injection, schedule: Q04DX003 (ip), vehicle: saline with Tween-80.

Where “and” joins values, the source holds several entries; their conditions need not be identical. Identical values can stand only once. Toxic doses and inconclusive results are not listed.

For the compound `Nc1nc(N)c2c(n1)NCN(CCc1ccc(Cl)cc1Cl)C2`, the T/C is 100 % of control (endpoint: mean survival time, dose: 0.75 mg/kg/injection, schedule: Q01DX009 (ip), vehicle: distilled water + Tween-80); 102 % of control (endpoint: mean survival time, dose: 1.5 mg/kg/injection, schedule: Q01DX009 (ip), vehicle: distilled water + Tween-80); 100 % of control (endpoint: mean survival time, dose: 3.0 mg/kg/injection, schedule: Q01DX009 (ip), vehicle: distilled water + Tween-80); 102 % of control (endpoint: mean survival time, dose: 6.0 mg/kg/injection, schedule: Q01DX009 (ip), vehicle: distilled water + Tween-80); 96 % of control (endpoint: mean survival time, dose: 12.0 mg/kg/injection, schedule: Q01DX009 (ip), vehicle: distilled water + Tween-80); 98 % of control (endpoint: mean survival time, dose: 24.0 mg/kg/injection, schedule: Q01DX009 (ip), vehicle: distilled water + Tween-80). The T/C is, setting by setting: (endpoint: mean survival time, dose: 37.5 mg/kg/injection, schedule: Q01DX009 (ip), vehicle: distilled water + Tween-80) 96 % of control; (endpoint: mean survival time, dose: 75.0 mg/kg/injection, schedule: Q01DX009 (ip), vehicle: distilled water + Tween-80) 94 % of control.
As to `OC(c1ccc(Cl)cc1)c1ccc(Cl)cc1`, the T/C is 105 % of control under setting [1], 90 % of control under setting [2] and 109 % of control under setting [3].
For the compound `CC(C)(C)CC(C)(C)NCC(O)COc1ccc(C(C)(C)c2ccc(OCC(O)CNC(C)(C)CC(C)(C)C)cc2)cc1` (centres undefined), the T/C runs as follows: (endpoint: mean survival time, dose: 3.0 mg/kg/injection, schedule: Q01DX009 (ip), vehicle: saline with Tween-80) 102 % of control; (endpoint: mean survival time, dose: 3.12 mg/kg/injection, schedule: Q01DX009 (ip), vehicle: Klucel (hydroxypropylcellulose) (HPC)) 93 % of control; (endpoint: mean survival time, dose: 6.0 mg/kg/injection, schedule: Q01DX009 (ip), vehicle: saline with Tween-80) 100 % of control; (endpoint: mean survival time, dose: 6.25 mg/kg/injection, schedule: Q01DX009 (ip), vehicle: Klucel (hydroxypropylcellulose) (HPC)) 94 % of control; (endpoint: mean survival time, dose: 12.0 mg/kg/injection, schedule: Q01DX009 (ip), vehicle: saline with Tween-80) 94 % of control; (endpoint: mean survival time, dose: 12.5 mg/kg/injection, schedule: Q01DX009 (ip), vehicle: Klucel (hydroxypropylcellulose) (HPC)) 100 % of control.
Regarding `CNC(=O)Oc1ccc(S(=O)(=O)c2ccc(OC(=O)NC)cc2)cc1`, the T/C is 103 % of control (endpoint: median survival time, dose: 12.5 mg/kg/injection, schedule: Q01DX009 (ip), vehicle: saline with Tween-80); 115 % of control and 112 % of control (endpoint: median survival time, dose: 25.0 mg/kg/injection, schedule: Q01DX009 (ip), vehicle: saline with Tween-80); 113 % of control (endpoint: median survival time, dose: 43.0 mg/kg/injection, schedule: Q01DX005 (ip), vehicle: saline with Tween-80); 102 % of control (endpoint: median survival time, dose: 43.0 mg/kg/injection, schedule: Q01DX009 (ip), vehicle: saline with Tween-80); 120 % of control (endpoint: median survival time, dose: 50.0 mg/kg/injection, schedule: Q01DX009 (ip), vehicle: saline with Tween-80); 108 % of control and 109 % of control (endpoint: median survival time, dose: 72.0 mg/kg/injection, schedule: Q01DX005 (ip), vehicle: saline with Tween-80). Further, the T/C runs as follows: (endpoint: median survival time, dose: 72.0 mg/kg/injection, schedule: Q01DX009 (ip), vehicle: saline with Tween-80) 101 % of control; (endpoint: median survival time, dose: 100.0 mg/kg/injection, schedule: Q01DX009 (ip), vehicle: saline with Tween-80) 122 % of control; (endpoint: median survival time, dose: 120.0 mg/kg/injection, schedule: Q01DX005 (ip), vehicle: saline with Tween-80) 109 % of control and 112 % of control; (endpoint: median survival time, dose: 120.0 mg/kg/injection, schedule: Q01DX009 (ip), vehicle: saline with Tween-80) 106 % of control; (endpoint: median survival time, dose: 200.0 mg/kg/injection, schedule: Q01DX005 (ip), vehicle: saline with Tween-80) 104 % of control and 109 % of control; (endpoint: median survival time, dose: 200.0 mg/kg/injection, schedule: Q01DX009 (ip), vehicle: saline with Tween-80) 151 % of control. Also, the T/C (endpoint: median survival time, dose: 333.0 mg/kg/injection, schedule: Q01DX005 (ip), vehicle: saline with Tween-80) is 109 % of control.
As to `C=CCc1ccccc1OC`, the T/C by setting is: under setting [4], 95 % of control; under setting [5], 104 % of control; (endpoint: mean survival time, dose: 400.0 mg/kg/injection, schedule: Q04DX003 (ip), vehicle: saline) 95 % of control.
On to `CCN(CC)c1cc(Nc2c3ccc(Cl)cc3nc3cc(Cl)ccc23)ccc1O`, for which the T/C under setting [6] was 102 % of control; the T/C under setting [7] was 97 % of control; the T/C under setting [8] is 104 % of control; the T/C under setting [9] is 100 % of control; the T/C under setting [10] was 117 % of control.
As for `N=c1c2ccccc2nnn1Cc1ccccc1`, the T/C is 98 % of control under setting [1], 96 % of control under setting [2] and 93 % of control under setting [3].
Consider `CC(=O)Oc1ccc(N2C(=O)C=CC2=O)cc1` (tested in a mixture with another compound), for which the T/C under setting [6] was 95 % of control; the T/C under setting [7] is 91 % of control; the T/C under setting [8] was 91 % of control; the T/C under setting [9] was 90 % of control; the T/C (endpoint: mean survival time, dose: 400.0 mg/kg/injection, schedule: Q01DX009 (ip), vehicle: saline with Tween-80) is 91 % of control; the T/C under setting [10] is 87 % of control.
Consider `CC1NCCOC1c1ccccc1` (centres undefined), for which the T/C by setting is: under setting [4], 100 % of control; under setting [5], 102 % of control.
With `O=S(=O)(O)O.[NH-]C1CCCCCC1[NH-].[Pt+2]` (centres undefined), the T/C was 205 % of control (endpoint: mean survival time, dose: 1.56 mg/kg/injection, schedule: Q04DX003 (ip), vehicle: dextrose); 200 % of control and 204 % of control (endpoint: mean survival time, dose: 3.13 mg/kg/injection, schedule: Q01DX001 (ip), vehicle: dextrose); 188 % of control and 241 % of control and 103 % of control (endpoint: mean survival time, dose: 3.13 mg/kg/injection, schedule: Q04DX003 (ip), vehicle: dextrose); 170 % of control and 189 % of control (endpoint: mean survival time, dose: 6.25 mg/kg/injection, schedule: Q01DX001 (ip), vehicle: dextrose); 86 % of control (endpoint: mean survival time, dose: 12.5 mg/kg/injection, schedule: Q01DX001 (ip), vehicle: dextrose); 97 % of control (endpoint: mean survival time, dose: 12.5 mg/kg/injection, schedule: Q04DX003 (ip), vehicle: dextrose).
On to `O=C(OC1=CCc2ccccc21)c1ccc([N+](=O)[O-])cc1`, for which the T/C runs as follows: (endpoint: mean survival time, dose: 50.0 mg/kg/injection, schedule: Q01DX001 (ip), vehicle: saline with Tween-80) 101 % of control; under setting [1], 96 % of control and 97 % of control; under setting [2], 121 % of control and 96 % of control; under setting [3], 95 % of control and 97 % of control.
In the case of `CC1=C(N2CC2)C(=O)c2c(COC(N)=O)c3n(c2C1=O)CCC3OC(N)=O` (centres undefined), the T/C (endpoint: mean survival time, dose: 1.5 mg/kg/injection, schedule: Q01DX001 (ip), vehicle: distilled water + Tween-80) is 108 % of control; the T/C (endpoint: mean survival time, dose: 3.0 mg/kg/injection, schedule: Q01DX001 (ip), vehicle: distilled water + Tween-80) is 109 % of control and 112 % of control; the T/C (endpoint: mean survival time, dose: 6.0 mg/kg/injection, schedule: Q01DX001 (ip), vehicle: distilled water + Tween-80) is 114 % of control and 121 % of control; the T/C (endpoint: mean survival time, dose: 12.0 mg/kg/injection, schedule: Q01DX001 (ip), vehicle: distilled water + Tween-80) is 120 % of control; the T/C (endpoint: mean survival time, dose: 48.0 mg/kg/injection, schedule: Q01DX001 (ip), vehicle: distilled water + Tween-80) is 120 % of control.
On to `COC12[C@@H]3N[C@@H]3CN1C1=C(C(=O)C(N(C)CCN(C)C)=C(C)C1=O)[C@@H]2COC(N)=O` (some centres undefined), for which the T/C is 104 % of control (endpoint: median survival time, dose: 3.0 mg/kg/injection, schedule: Q01DX001 (ip), vehicle: saline); 105 % of control (endpoint: median survival time, dose: 6.0 mg/kg/injection, schedule: Q01DX001 (ip), vehicle: saline); 119 % of control and 105 % of control (endpoint: median survival time, dose: 12.0 mg/kg/injection, schedule: Q01DX001 (ip), vehicle: saline); 109 % of control (endpoint: median survival time, dose: 24.0 mg/kg/injection, schedule: Q01DX001 (ip), vehicle: saline).
For the compound `Nc1ccnnc1`, the T/C was 98 % of control under setting [4] and 101 % of control under setting [5].
Regarding `CC(=O)OCC(C(=O)OC1CC2C3OC3C(C1)N2C)c1ccccc1` (centres undefined), the T/C was 100 % of control (endpoint: median survival time, dose: 12.5 mg/kg/injection, schedule: Q04DX003 (ip), vehicle: saline); 100 % of control (endpoint: median survival time, dose: 25.0 mg/kg/injection, schedule: Q04DX003 (ip), vehicle: saline); 88 % of control (endpoint: median survival time, dose: 50.0 mg/kg/injection, schedule: Q04DX003 (ip), vehicle: saline); 88 % of control (endpoint: median survival time, dose: 100.0 mg/kg/injection, schedule: Q04DX003 (ip), vehicle: saline).

Source of the values: PubChem BioAssay AID256 (DTP/NCI, 2004).
